Columns and labels:
[1] = tested on: Escherichia coli NIHJ; test: MIC by plate method; assay type: cell-based; set-up: unit not given here; details: Heart Infusion agar pH 7.4, inoculum 10^4 cells per plate (10^6 cells/ml)
Protocol: (§1) The minimum inhibitory concentration (MIC) was determined by the plate method disclosed in "Chemotherapy" (Japan), Vol. 16, (1968), pages 98-99. The culture medium used was a Heart Infusion agar (pH 7.4). The number of the cells per plate used in the inoculum was 10^4 (10^6 cells/ml).

[2] = tested on: Enterobacter cloacae IID 977; test: MIC by plate method; assay type: cell-based; set-up: unit not given here; details: Heart Infusion agar pH 7.4, inoculum 10^4 cells per plate (10^6 cells/ml)
Protocol: as §1

[3] = tested on: Serratia marcescens W-8; test: MIC by plate method; assay type: cell-based; set-up: unit not given here; details: Heart Infusion agar pH 7.4, inoculum 10^4 cells per plate (10^6 cells/ml)
Protocol: as §1

[4] = tested on: Klebsiella pneumoniae Y-50; test: MIC by plate method; assay type: cell-based; set-up: unit not given here; details: Heart Infusion agar pH 7.4, inoculum 10^4 cells per plate (10^6 cells/ml)
Protocol: as §1

[5] = tested on: Pseudomonas aeruginosa IFO-3445; test: MIC by plate method; assay type: cell-based; set-up: unit not given here; details: Heart Infusion agar pH 7.4, inoculum 10^4 cells per plate (10^6 cells/ml)
Protocol: as §1

[6] = tested on: Proteus vulgaris GN 76 (Cephalosporinase-producing bacterium); test: MIC by plate method; assay type: cell-based; set-up: unit not given here; details: Heart Infusion agar pH 7.4, inoculum 10^4 cells per plate (10^6 cells/ml)
Protocol: as §1

[7] = tested on: Staphylococcus aureus F-19 (Penicillinase-producing bacterium); test: MIC by plate method; assay type: cell-based; set-up: unit not given here; details: Heart Infusion agar pH 7.4, inoculum 10^4 cells per plate (10^6 cells/ml)
Protocol: as §1

[8] = tested on: Citrobacter freundii GN 346 (Cephalosporinase-producing bacterium); test: MIC by plate method; assay type: cell-based; set-up: unit not given here; details: Heart Infusion agar pH 7.4, inoculum 10^4 cells per plate (10^6 cells/ml)
Protocol: as §1

[9] = tested on: Acinetobacter calcoaceticus A-6; test: MIC by plate method; assay type: cell-based; details: Heart Infusion agar pH 7.4, inoculum 10^4 cells per plate (10^6 cells/ml)
Protocol: as §1

[10] = tested on: Citrobacter spp Toyama Citizen No. 31; test: MIC by plate method; assay type: cell-based; details: Heart Infusion agar pH 7.4, inoculum 10^4 cells per plate (10^6 cells/ml)
Protocol: as §1

[11] = biological target: T1, Cephalosporinase Serratia W-8 (Serratia marcescens, UniProt P18539); test: Resistance against β-lactamase, iodometric assay; assay type: biochemical; details: activity of control Cephalorigine assumed as 100
T1 construct: W-8; endogenous in cells; host or cells: Serratia W-8
Protocol: (§2) The resistant activity against β-lactamase of the product obtained above was as shown in Table 3 in which comparisons are shown:
(§3) The resistance of each compound against β-lactamase was determined by the iodometric assay method.

[12] = biological target: T2, Cephalosporinase Pseudomonas aeruginosa TN 918 (Pseudomonas aeruginosa, UniProt P24735); test: Resistance against β-lactamase, iodometric assay; assay type: biochemical; details: activity of control Cephalorigine assumed as 100
T2 construct: TN 918; endogenous in cells; host or cells: Pseudomonas aeruginosa TN 918
Protocol: as §2, §3

[13] = tested on: Penicillinase E. coli TK-3; test: Resistance against β-lactamase, iodometric assay; assay type: biochemical; details: activity of control potassium Penicillin G assumed as 100
Protocol: as §2, §3

T1 sequence (P18539 22-376): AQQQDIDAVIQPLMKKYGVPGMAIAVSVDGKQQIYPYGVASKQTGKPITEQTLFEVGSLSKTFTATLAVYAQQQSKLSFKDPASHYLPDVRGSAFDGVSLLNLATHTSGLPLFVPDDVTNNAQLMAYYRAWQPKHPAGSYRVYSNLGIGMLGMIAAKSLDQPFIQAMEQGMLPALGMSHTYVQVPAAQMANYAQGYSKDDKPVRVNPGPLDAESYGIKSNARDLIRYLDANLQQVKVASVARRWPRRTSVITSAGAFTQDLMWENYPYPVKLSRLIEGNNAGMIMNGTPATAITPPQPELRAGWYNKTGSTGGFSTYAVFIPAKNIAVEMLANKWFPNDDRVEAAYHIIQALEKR
T2 sequence (P24735 27-397): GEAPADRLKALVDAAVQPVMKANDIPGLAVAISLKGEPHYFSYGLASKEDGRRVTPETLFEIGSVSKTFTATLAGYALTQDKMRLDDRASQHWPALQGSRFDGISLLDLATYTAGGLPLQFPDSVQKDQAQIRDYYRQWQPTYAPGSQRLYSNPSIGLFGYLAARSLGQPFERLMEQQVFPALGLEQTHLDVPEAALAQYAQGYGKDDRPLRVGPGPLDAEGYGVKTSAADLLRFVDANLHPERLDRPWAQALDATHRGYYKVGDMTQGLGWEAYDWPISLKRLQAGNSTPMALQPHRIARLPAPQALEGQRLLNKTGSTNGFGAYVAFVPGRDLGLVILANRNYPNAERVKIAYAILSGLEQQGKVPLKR

| minimum inhibitory concentration (MIC) [1] | minimum inhibitory concentration (MIC) [2] | minimum inhibitory concentration (MIC) [3] | minimum inhibitory concentration (MIC) [4] | minimum inhibitory concentration (MIC) [5] | minimum inhibitory concentration (MIC) [6] | minimum inhibitory concentration (MIC) [7] | minimum inhibitory concentration (MIC) [8] | minimum inhibitory concentration (MIC) [9] | minimum inhibitory concentration (MIC) [10] | Structure (SMILES) | relative activity value, Cephalosporinase Serratia W-8 [11] | relative activity value, Cephalosporinase Pseudomonas aeruginosa TN 918 [12] | relative activity value, Penicillinase E. coli TK-3 [13] |
| --- | --- | --- | --- | --- | --- | --- | --- | --- | --- | --- | --- | --- | --- |
| ≤ 0.1 | 100 | 200 | 1.56 | 100 | 3.13 | 12.5 | > 200 | 25 | 6.25 | CCN1CCN(C(=O)N[C@@H](C(=O)N[C@]2(OC)C(=O)N3C(C(=O)O)=C(CSc4nnc(C)s4)CS[C@@H]32)c2ccccc2)C(=O)C1=O [Compound No. 3, 7β-[D(-)-α-(4-ethyl-2,3-dioxo-1-piperazinylcarbonylamino)phenylacetamido]-7α-methoxy-3-[2-(5-methyl-1,3,4-thiadiazolyl)thiomethyl]-Δ^3-cephem-4-carboxylic acid] | – | – | – |
| – | – | – | – | – | – | – | – | – | – | CC1(C)S[C@@H]2[C@H](NC(=O)Cc3ccccc3)C(=O)N2[C@H]1C(=O)O [Potassium Penicillin G] | 21 | 16 | 100 |
| ≤ 0.1 | 100 | 100 | 0.2 | 6.25 | 0.39 | 6.25 | 100 | 6.25 | 1.56 | CCN1CCN(C(=O)N[C@@H](C(=O)N[C@]2(OC)C(=O)N3C(C(=O)O)=C(CSc4nnnn4C)CS[C@@H]32)c2ccc(O)cc2)C(=O)C1=O [Compound No. 2, 7β-[D(-)-α-(4-ethyl-2,3-dioxo-1-piperazinylcarbonylamino)-p-hydroxyphenylacetamido]-7α-methoxy-3-[5-(1-methyl-1,2,3,4-tetrazolyl)thiomethyl]-Δ^3-cephem-4-carboxylic acid] | – | – | – |
| ≤ 0.1 | 25 | 50 | 0.78 | 12.5 | 0.78 | 6.25 | 100 | 12.5 | 1.56 | CCN1CCN(C(=O)N[C@@H](C(=O)N[C@]2(OC)C(=O)N3C(C(=O)O)=C(CSc4nnnn4C)CS[C@@H]32)c2ccccc2)C(=O)C1=O [Compound No. 1, 7β-[D(-)-α-(4-ethyl-2,3-dioxo-1-piperazinylcarbonylamino)phenylacetamido]-7α-methoxy-3-[5-(1-methyl-1,2,3,4-tetrazolyl)thiomethyl]-Δ^3-cephem-4-carboxylic acid] | – | – | – |
| – | – | – | – | – | – | – | – | – | – | O=C(Cc1cccs1)N[C@@H]1C(=O)N2C(C(=O)[O-])=C(C[n+]3ccccc3)CS[C@H]12 [Cephalorigine] | 100 | 100 | 115 |

| Structure (SMILES) | minimum inhibitory concentration (MIC) [1] | minimum inhibitory concentration (MIC) [2] | minimum inhibitory concentration (MIC) [3] | minimum inhibitory concentration (MIC) [4] | minimum inhibitory concentration (MIC) [5] | minimum inhibitory concentration (MIC) [6] | minimum inhibitory concentration (MIC) [7] | minimum inhibitory concentration (MIC) [8] | minimum inhibitory concentration (MIC) [9] | minimum inhibitory concentration (MIC) [10] | relative activity value, Cephalosporinase Serratia W-8 [11] | relative activity value, Cephalosporinase Pseudomonas aeruginosa TN 918 [12] | relative activity value, Penicillinase E. coli TK-3 [13] |
| --- | --- | --- | --- | --- | --- | --- | --- | --- | --- | --- | --- | --- | --- |
| CCN1CCN(C(=O)N[C@@H](C(=O)N[C@]2(OC)C(=O)N3C(C(=O)O)=C(COC(C)=O)CS[C@@H]32)c2ccc(O)cc2)C(=O)C1=O [Compound No. 5, 7β-[D(-)-α-(4-ethyl-2,3-dioxo-1-piperazinylcarbonylamino)-p-hydroxyphenylacetamido]-7α-methoxy-3-acetoxymethyl-Δ^3-cephem-4-carboxylic acid] | ≤ 0.1 | 100 | 200 | 0.78 | 12.5 | 3.13 | 25 | 25 | – | – | – | – | – |
| CCN1CCN(C(=O)N[C@@H](C(=O)N[C@]2(OC)C(=O)N3C(C(=O)O)=C(COC(C)=O)CS[C@@H]32)c2ccccc2)C(=O)C1=O [Compound No. 4, 7β-[D(-)-α-(4-ethyl-2,3-dioxo-1-piperazinylcarbonylamino)phenylacetamido]-7α-methoxy-3-acetoxymethyl-Δ^3-cephem-4-carboxylic acid] | ≤ 0.1 | 100 | 200 | 1.56 | 50 | 1.56 | 12.5 | – | – | – | < 0.06 | < 0.4 | < 0.04 |
